“Also recorded” adds a separate entry of the source. Like-named read-outs stand apart in the source and are kept apart here.
Tests used:
[1] = tested on: antiviral state induced by human α interferon; experiment: cells; assay type: cell-based; conditions: for inhibited the action of interferon: summary of Table 3, concentrations and serum as in Table 3
[2] = tested on: induction of antiviral state by mouse interferon in mouse L cells; assay type: cell-based; conditions: 50 µM
[3] = tested on: induction of antiviral state by human α interferon in human fibroblasts; assay type: cell-based
interferon activity = conditions: Sarkar and Gupta; cited from earlier work
[4] = tested on: induction of antiviral state by mouse interferon in mouse A9 cells; assay type: cell-based; conditions: 50 µM
[5] = tested on: uptake of ³[H]-uridine by the cells; experiment: Uptake of 3[H]-uridine by the cells; assay type: cell-based
[6] = tested on: antiviral state induced by human γ interferon; experiment: cells; assay type: cell-based; conditions: Fibroblast, 6 h, read-out: % inhibition of antiviral state induced by: human γ interferon
[7] = tested on: total cellular protein synthesis; experiment: Total cellular protein synthesis; assay type: cell-based
[8] = tested on: human alpha interferon-induced antiviral state; experiment: Kinetics of the inhibition of the interferon-induced antiviral state in human fibroblasts, Example 2; assay type: cell-based
Description: Human fibroblasts grown in 96 well Micro-test II plates were incubated with growth medium containing 1% fetal calf serum and 50µM arachidonic acid for up to 6 hours. The cells were then assayed for the inhibition of the human alpha interferon-induced antiviral state.
Also, human fibroblasts in 96 well Micro-test II plates were incubated with growth medium containing 1% fetal calf serum and 50µM arachidonic acid for 6 hours.

[9] = tested on: antiviral state induced by human β interferon; experiment: cells; assay type: cell-based; conditions: Fibroblast, 6 h, read-out: % inhibition of antiviral state induced by: human β interferon
interferon receptors = target: T1, interferon receptors (Homo sapiens, UniProt P17181+P48551); experiment: Binding of 125I-labelled human alpha interferon to human fibroblasts (Scatchard plot), Example 3; conditions: for down regulating the interferon receptors: Figures 4 and 5
T1 construct: endogenous in cells; host or cells: human fibroblasts
T1 sequence (P17181 28-557): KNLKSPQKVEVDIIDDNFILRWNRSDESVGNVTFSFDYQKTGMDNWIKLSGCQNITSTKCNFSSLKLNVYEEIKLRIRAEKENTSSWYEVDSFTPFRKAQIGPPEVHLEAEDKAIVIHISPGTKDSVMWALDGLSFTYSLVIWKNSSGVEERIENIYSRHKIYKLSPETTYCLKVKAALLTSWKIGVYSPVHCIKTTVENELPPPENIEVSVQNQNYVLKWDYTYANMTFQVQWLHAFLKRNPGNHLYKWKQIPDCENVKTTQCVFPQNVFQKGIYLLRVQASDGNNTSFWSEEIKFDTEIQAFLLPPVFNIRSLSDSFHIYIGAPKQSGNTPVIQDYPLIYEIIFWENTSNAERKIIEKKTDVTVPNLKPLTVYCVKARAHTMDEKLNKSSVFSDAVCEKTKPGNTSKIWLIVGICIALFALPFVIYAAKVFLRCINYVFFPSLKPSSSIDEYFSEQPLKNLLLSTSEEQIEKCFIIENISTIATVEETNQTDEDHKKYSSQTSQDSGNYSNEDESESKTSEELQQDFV
T1 sequence (P48551 27-515): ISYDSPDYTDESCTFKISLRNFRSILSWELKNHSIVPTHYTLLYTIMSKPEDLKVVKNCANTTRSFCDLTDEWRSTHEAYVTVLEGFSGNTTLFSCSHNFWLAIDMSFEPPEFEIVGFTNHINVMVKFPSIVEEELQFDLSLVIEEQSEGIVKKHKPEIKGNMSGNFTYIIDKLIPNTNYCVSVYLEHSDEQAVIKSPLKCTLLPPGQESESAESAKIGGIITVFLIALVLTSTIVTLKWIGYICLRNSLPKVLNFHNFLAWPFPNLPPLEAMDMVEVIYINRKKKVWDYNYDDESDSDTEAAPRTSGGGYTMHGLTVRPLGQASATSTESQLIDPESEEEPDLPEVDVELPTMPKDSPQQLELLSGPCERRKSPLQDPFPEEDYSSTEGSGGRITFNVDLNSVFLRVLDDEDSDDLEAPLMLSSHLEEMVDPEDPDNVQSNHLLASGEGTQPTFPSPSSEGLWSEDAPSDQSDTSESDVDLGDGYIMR
Description: The binding of interferons to human cells was analysed with human alpha interferon labelled with radioactive iodine. The ¹²⁵I-labelled human alpha interferon was assayed for biological activity as well as analysed by sodium dodecyl sulphate (SDS)-polyacrylamide gel electrophoresis before use to ensure that the labelled ligand was not degraded and biologically active. The labelled ligand was then used in binding studies with human fibroblasts as previously described (Thompson et al., Branca and Baglioni; and Epstein et al.). The results of this study are expressed as a Scatchard plot of the binding data in Figures 3 to 6. The cells were washed twice with growth medium to remove most of the fatty acid before they were used to measure the binding of ¹²⁵I-human alpha interferon to their receptors. B and F are concentration of bound and free ¹²⁵I-human alpha interferon respectively.

[10] = tested on: total protein and RNA synthesis in the cells; conditions: at concentrations exceeding 1000µM; Sarkar and Gupta; cited from earlier work
[11] = Homo sapiens, Fibroblast, 6 h, read-out: % inhibition of antiviral state induced by: human α interferon, 50µM compound, 10% fetal calf serum, 6 hours
[12] = Homo sapiens, Fibroblast, 6 h, read-out: % inhibition of antiviral state induced by: human α interferon, 50µM compound, 1% fetal calf serum, 6 hours
[13] = Homo sapiens, Fibroblast, read-out: % inhibition of the antiviral state induced by human α interferon, Table 4: 50 µM compound, 1% fetal calf serum
[14] = Homo sapiens, Fibroblast, read-out: % inhibition of the antiviral state induced by human α interferon, Table 4: 50 µM compound, 10% fetal calf serum

Structure (SMILES): O=c1c(O)c(-c2ccc(O)c(O)c2)oc2cc(O)cc(O)c12 [Quercetin]
- inhibition at 50 µM [1, 11]: 90%
- inhibited the action of interferon [1]: ≥ 90%

Structure (SMILES): CCCCC1C(=O)N(c2ccccc2)N(c2ccc(O)cc2)C1=O (stereo not drawn) [Oxyphenylbutazone]
- % inhibition in mouse L cells [2]: could not measure any inhibitory effect; also recorded: not measurable
- % inhibition in human fibroblasts ([3]; 50 µM): could not measure any inhibitory effect; also recorded: not measurable

Structure (SMILES): COc1ccc2c(c1)c(CC(=O)O)c(C)n2C(=O)c1ccc(Cl)cc1 [Indomethacin]
- % inhibition in mouse L cells [2]: not measurable
- concentration at which interferon activity could be suppressed (interferon activity): exceeding 1000 µM
- % inhibition in human fibroblasts ([3]; 50 µM): not measurable
- % inhibition in human fibroblasts ([3]; 300 µM): could not measure any inhibitory effect; also recorded: not measurable
- % inhibition in mouse A9 cells [4]: not measurable

Structure (SMILES): CCCCCC=CCC=CCC=CCC=CCCCC(=O)O [arachidonic acid, 5,8,11,14-eicosatetraenoic acid]
- inhibition of the uptake of ³[H]-uridine by the cells [5]: partially inhibited
- inhibition at 50 µM [6]: ≥ 80%
- inhibition at 50 µM [1, 12]: ≥ 90%
- inhibition at 50 µM [1, 13]: ≥ 90%
- inhibition at 50 µM [1, 14]: 0%
- inhibition at 300 µM ([1]; Homo sapiens, Fibroblast, read-out: % inhibition of the antiviral state induced by human α interferon, Table 4: 300 µM compound, 10% fetal calf serum): ≥ 90%
- inhibited the action of interferon [1]: ≥ 90%
- inhibition of total cellular protein synthesis [7]: did not inhibit
- reversibility of the inhibition after removal of compound ([8]; 50µM for 6 hours, washed, reincubated 0.5, 1, 2 or 24 hours, 1% fetal calf serum (Figure 2)): reversible with time
- onset of inhibition of the interferon-induced antiviral state ([8]; 50µM, 1% fetal calf serum, incubation up to 6 hours (Figure 1)): within minutes
- inhibition at 50 µM [9]: ≥ 90%
- down regulating the interferon receptors (interferon receptors): 30-60%

Structure (SMILES): CCCCCCCCC#CCC#CCC#CCCCC(=O)O [5,8,11,-eicosatriynoic acid, 5,8,11-eicosatriynoic acid]
- inhibition at 50 µM [1, 12]: ≥ 90%
- inhibited the action of interferon [1]: ≥ 90%

Structure (SMILES): CCCCCC#CCC#CCC#CCC#CCCCC(=O)O
- inhibition of the uptake of ³[H]-uridine by the cells [5]: partially inhibited
- inhibition at 50 µM [6]: ≥ 80%
- inhibition at 50 µM [1, 12]: ≥ 90%
- inhibition at 50 µM [1, 13]: ≥ 90%
- inhibition at 50 µM [1, 14]: 0%
- inhibition at 200 µM ([1]; Homo sapiens, Fibroblast, read-out: % inhibition of the antiviral state induced by human α interferon, Table 4: 200 µM compound, 10% fetal calf serum): ≥ 90%
- inhibition at 200 µM ([1]; Homo sapiens, Fibroblast, read-out: inhibit the interferon-induced antiviral state, 200µM, 10% fetal calf serum): ≥ 90%
- inhibited the action of interferon [1]: ≥ 90%
- inhibition of total cellular protein synthesis [7]: did not inhibit
- inhibition at 50 µM [9]: ≥ 90%
- down regulating the interferon receptors (interferon receptors): 30-60%

Structure (SMILES): CC(Cc1ccc(O)c(O)c1)C(C)Cc1ccc(O)c(O)c1 (stereo not drawn) [Nordihydroguaiaretic acid, 4,4′-(2,3-dimethyltetramethylene)bis(benzene-1,2-diol)]
- inhibition at 50 µM [1, 11]: ≥ 90%
- inhibited the action of interferon [1]: ≥ 90%
- inhibition at 50 µM [9]: ≥ 90%
- down regulation of the interferon receptors (interferon receptors; 10% fetal calf serum (Figure 6)): does not seem to significantly down regulate

Structure (SMILES): CC(=O)N1CCN(c2ccc(OC[C@H]3CO[C@](Cn4ccnc4)(c4ccc(Cl)cc4Cl)O3)cc2)CC1 (relative stereo) [Ketoconazole, cis-1-acetyl-4-{4-[2-(2,4-dichlorophenyl)-2-imidazol-1-ylmethyl-1,3-dioxolan-4-ylmethoxy]phenyl}-piperazine, reference compound]
- inhibition at 100 µM ([1]; Homo sapiens, Fibroblast, 6 h, read-out: % inhibition of antiviral state induced by: human α interferon, 100µM compound, 10% fetal calf serum, 6 hours): ≥ 90%
- inhibited the action of interferon [1]: ≥ 90%
- inhibition of total cellular protein synthesis [7]: did not inhibit
- inhibition at 100 µM [9]: ≥ 90%

Structure (SMILES): CCCCC/C=C\C/C=C\C/C=C\C/C=C\CCCC(=O)O [sodium arachidonate]
- inhibition at 300 µM ([1]; Homo sapiens, Fibroblast, read-out: inhibit the interferon-induced antiviral state, 300µM, 10% fetal calf serum): ≥ 90%

Structure (SMILES): CC(C)Cc1ccc(C(C)C(=O)O)cc1 (stereo not drawn) [ibuprofen]
- concentration at which interferon activity could be suppressed (interferon activity): exceeding 1000 µM
- effect on total protein and RNA synthesis in the cells [10]: began to inhibit total protein and RNA synthesis

From patent publication EP0396251A2, “Use of fatty acids for the treatment of diseases associated with cytokines” (NATIONAL UNIVERSITY OF SINGAPORE, priority 1989, dated 1990)
